Experimental data published in patent publication US10479795B2 (Incyte Corporation, priority 2016, dated 2019).
Where a name gives a salt, the structure may show the parent alone.

Key:
[1] = tested on: Phosphorylated Ribosomal Protein S6 (RPS6); assay: THP-1 RPS6 ELISA Assay; type: cell-based, Human; details: Homo sapiens; THP-1 cells; read-out: PI3Kγ_THP1_RPS6_ELISA IC50
Method in brief: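 IC50 values come from a curve of percent inhibition against log compound concentration, using phospho-RPS6 ELISA (450 nm) on THP-1 lysates. Cells were serum-starved overnight, exposed to compound for 2 h at 37 °C, then challenged 15 min with 10 nM MCP-1.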

[2] = biological target: PI3Kγ (p110γ) Recombinant Human Protein (Homo sapiens (Human), UniProt P48736); assay: PI3K-γ Scintillation Proximity Assay; type: biochemical; details: read-out: PI3Kγ IC50
Chain of PI3Kγ (p110γ) Recombinant Human Protein (P48736 whole entry): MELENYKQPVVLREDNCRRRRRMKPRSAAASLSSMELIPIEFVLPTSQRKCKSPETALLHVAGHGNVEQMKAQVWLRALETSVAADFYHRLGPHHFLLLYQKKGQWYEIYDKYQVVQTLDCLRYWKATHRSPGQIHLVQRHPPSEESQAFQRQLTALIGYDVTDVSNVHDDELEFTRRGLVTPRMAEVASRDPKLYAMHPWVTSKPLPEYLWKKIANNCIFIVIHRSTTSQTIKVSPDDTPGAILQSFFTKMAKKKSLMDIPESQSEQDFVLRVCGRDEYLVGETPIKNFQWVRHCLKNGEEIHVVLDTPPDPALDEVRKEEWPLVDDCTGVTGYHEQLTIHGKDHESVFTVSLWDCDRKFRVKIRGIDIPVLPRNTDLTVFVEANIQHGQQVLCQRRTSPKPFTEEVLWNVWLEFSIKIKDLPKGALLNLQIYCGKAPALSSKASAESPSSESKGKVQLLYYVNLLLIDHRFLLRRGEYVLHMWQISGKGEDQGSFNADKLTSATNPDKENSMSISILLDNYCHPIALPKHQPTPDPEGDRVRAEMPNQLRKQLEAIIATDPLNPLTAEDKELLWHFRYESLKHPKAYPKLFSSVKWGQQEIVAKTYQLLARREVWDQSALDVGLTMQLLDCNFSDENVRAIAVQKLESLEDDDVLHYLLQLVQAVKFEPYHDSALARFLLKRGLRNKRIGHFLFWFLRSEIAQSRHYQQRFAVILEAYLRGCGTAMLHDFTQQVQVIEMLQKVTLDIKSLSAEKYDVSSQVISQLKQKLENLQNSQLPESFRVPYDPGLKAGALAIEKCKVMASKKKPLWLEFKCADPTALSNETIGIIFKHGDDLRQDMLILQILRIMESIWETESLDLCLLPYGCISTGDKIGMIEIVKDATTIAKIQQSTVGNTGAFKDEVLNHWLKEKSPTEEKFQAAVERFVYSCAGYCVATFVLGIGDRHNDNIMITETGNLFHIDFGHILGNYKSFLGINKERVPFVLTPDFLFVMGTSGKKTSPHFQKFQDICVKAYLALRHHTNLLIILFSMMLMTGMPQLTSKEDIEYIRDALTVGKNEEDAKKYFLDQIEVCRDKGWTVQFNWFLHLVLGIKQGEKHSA
Method in brief: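 Radiometric SPA readout: […] bound to WGA beads after overnight shaking, IC50 derived from % activity of DMSO control. Reaction used human p110γ, 2 μM ATP, 20 μM PIP2, pH 6.7 MOPS buffer with MgCl2, DTT, CHAPS, 2% DMSO, room temperature.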

[3] = biological target: PI3Kδ (p110δ/p85α) Recombinant Human Protein (Homo sapiens (Human), UniProt O00329); assay: PI3Kδ Scintillation Proximity Assay; type: biochemical
Chain of PI3Kδ (p110δ/p85α) Recombinant Human Protein (O00329 whole entry): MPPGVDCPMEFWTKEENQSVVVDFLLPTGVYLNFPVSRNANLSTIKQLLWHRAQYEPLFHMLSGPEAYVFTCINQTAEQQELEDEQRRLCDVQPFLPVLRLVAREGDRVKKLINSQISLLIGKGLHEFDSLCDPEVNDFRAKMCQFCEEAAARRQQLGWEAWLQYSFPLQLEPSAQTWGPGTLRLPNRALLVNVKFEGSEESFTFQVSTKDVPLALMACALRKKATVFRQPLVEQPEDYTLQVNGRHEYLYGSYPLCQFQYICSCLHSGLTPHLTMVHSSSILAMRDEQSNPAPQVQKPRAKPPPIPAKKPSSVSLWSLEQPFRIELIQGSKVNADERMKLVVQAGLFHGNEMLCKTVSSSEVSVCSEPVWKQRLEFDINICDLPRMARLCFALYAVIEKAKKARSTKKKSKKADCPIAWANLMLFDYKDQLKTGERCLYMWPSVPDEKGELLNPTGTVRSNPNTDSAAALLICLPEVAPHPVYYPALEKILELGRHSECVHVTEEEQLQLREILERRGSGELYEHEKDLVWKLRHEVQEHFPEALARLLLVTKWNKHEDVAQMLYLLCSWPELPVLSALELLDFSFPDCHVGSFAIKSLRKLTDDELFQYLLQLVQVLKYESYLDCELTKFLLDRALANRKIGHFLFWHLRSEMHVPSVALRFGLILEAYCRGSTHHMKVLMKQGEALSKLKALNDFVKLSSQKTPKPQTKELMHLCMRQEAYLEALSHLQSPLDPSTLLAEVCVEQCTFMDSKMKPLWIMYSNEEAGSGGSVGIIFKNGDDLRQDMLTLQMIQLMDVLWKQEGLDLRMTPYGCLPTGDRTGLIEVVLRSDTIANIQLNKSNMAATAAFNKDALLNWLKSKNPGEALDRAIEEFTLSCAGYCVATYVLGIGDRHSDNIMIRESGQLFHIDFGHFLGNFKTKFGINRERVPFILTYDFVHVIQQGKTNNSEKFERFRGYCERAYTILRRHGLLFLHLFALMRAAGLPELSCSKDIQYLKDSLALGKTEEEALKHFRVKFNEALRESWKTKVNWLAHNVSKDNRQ
Chain of PI3Kδ (p110δ/p85α) Recombinant Human Protein (P27986 whole entry partner): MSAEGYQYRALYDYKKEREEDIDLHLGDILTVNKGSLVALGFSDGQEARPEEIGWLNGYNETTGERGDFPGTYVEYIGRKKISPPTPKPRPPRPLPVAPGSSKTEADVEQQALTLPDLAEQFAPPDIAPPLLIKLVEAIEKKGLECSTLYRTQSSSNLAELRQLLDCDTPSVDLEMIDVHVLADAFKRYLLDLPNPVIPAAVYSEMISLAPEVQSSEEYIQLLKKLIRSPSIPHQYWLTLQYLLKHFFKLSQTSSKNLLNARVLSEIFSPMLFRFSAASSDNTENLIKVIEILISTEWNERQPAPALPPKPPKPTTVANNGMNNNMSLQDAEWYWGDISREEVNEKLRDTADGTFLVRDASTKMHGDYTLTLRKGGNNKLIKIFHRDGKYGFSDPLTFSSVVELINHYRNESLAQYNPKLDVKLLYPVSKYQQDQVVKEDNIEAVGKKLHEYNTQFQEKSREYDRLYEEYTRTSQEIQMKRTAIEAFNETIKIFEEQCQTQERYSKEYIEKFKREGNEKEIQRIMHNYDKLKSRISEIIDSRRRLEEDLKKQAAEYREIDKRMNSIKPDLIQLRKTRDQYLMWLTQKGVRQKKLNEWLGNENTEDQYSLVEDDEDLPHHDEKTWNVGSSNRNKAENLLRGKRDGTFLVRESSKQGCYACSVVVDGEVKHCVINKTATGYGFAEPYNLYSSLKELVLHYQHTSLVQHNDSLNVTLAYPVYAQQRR
Method in brief: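 IC50 was fitted to percent solvent-control activity from SPA scintillation counts after WGA bead capture of 33P-labelled lipid product. Reaction: 120 min, room temperature, 3.4 nM p110δ/p85α, 20 μM PIP2, 2 μM ATP with tracer, MOPS pH 6.7 buffer containing MgCl2, DTT, CHAPS, 2% DMSO.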

| SMILES | IC50 [1] [nM] | IC50 [2] [nM] | IC50 [3] [nM] |
| --- | --- | --- | --- |
| Cc1ccc(S(=O)(=O)N2CC[C@H](O)C2)cc1-c1cnc2c(N)ncnn12 [Example 197, (S)-1-((3-(4-Aminoimidazo[2,1-f][1,2,4]triazin-7-yl)-4-methylphenyl)sulfonyl)pyrrolidin-3-ol] | 500 to 1000 | < 100 | 500 to 2000 |
| CC(=O)NC1CCN(S(=O)(=O)c2ccc(C)c(-c3cnc4c(N)ncnn34)c2)C1 (stereo not drawn) [Example 199, N-(1-((3-(4-Aminoimidazo[2,1-f][1,2,4]triazin-7-yl)-4-methylphenyl)sulfonyl)pyrrolidin-3-yl)acetamide] | 500 to 1000 | < 100 | 500 to 2000 |
| Cc1ccc(S(=O)(=O)N2CCC3(CCCOC3)C2)cc1-c1cnc2c(N)ncnn12 (stereo not drawn) [Example 203, 7-(5-((7-Oxa-2-azaspiro[4.5]decan-2-yl)sulfonyl)-2-methylphenyl)imidazo[2,1-f][1,2,4]triazin-4-amine] | 500 to 1000 | < 100 | 100 to 500 |
| Cc1ccc(S(=O)(=O)N2CCC3(CCO3)C2)cc1-c1cnc2c(N)ncnn12 (stereo not drawn) [Example 205, 7-(5-((1-Oxa-6-azaspiro[3.4]octan-6-yl)sulfonyl)-2-methylphenyl)imidazo[2,1-f][1,2,4]triazin-4-amine] | > 1000 | < 100 | 500 to 2000 |
| Cc1ccc(S(=O)(=O)N2CCC3(CCOCC3)C2C)cc1-c1cnc2c(N)ncnn12 (stereo not drawn) [Example 206, 7-(2-Methyl-5-((1-methyl-8-oxa-2-azaspiro[4.5]decan-2-yl)sulfonyl)phenyl)imidazo[2,1-f][1,2,4]triazin-4-amine] | > 1000 | < 100 | 500 to 2000 |
| Cc1ccc(S(=O)(=O)N2CCCC23CCOC3)cc1-c1cnc2c(N)ncnn12 (stereo not drawn) [Example 208, 7-(5-((7-Oxa-1-azaspiro[4.4]nonan-1-yl)sulfonyl)-2-methylphenyl)imidazo[2,1-f][1,2,4]triazin-4-amine] | 500 to 1000 | < 100 | 500 to 2000 |
| Cc1ccc(S(=O)(=O)N2CC(F)(F)C[C@H]2CO)cc1-c1cnc2c(N)ncnn12 [Example 212, (S)-(1-((3-(4-Aminoimidazo[2,1-f][1,2,4]triazin-7-yl)-4-methylphenyl)sulfonyl)-4,4-difluoropyrrolidin-2-yl)methanol] | 500 to 1000 | < 100 | 500 to 2000 |
| Cc1ncc(S(=O)(=O)NC23CCC(C#N)(C2)C3)cc1-c1cnc2c(N)nc(C(F)(F)F)cn12 [Example 257, 5-(8-amino-6-(trifluoromethyl)imidazo[1,2-a]pyrazin-3-yl)-N-(4-cyanobicyclo[2.1.1]hexan-1-yl)-6-methylpyridine-3-sulfonamide] | > 1000 | < 100 | 500 to 2000 |
| Cc1nc2c(N)ncnn2c1-c1cccc(S(=O)(=O)NC23CCC(C#N)(C2)C3)c1 [Example 258, 3-(4-Amino-6-methylimidazo[2,1-f][1,2,4]triazin-7-yl)-N-(4-cyanobicyclo[2.1.1]hexan-1-yl)benzenesulfonamide trifluoroacetate salt] | 500 to 1000 | < 100 | 100 to 500 |

The next lines start with the values.

| IC50 [1] [nM] | IC50 [2] [nM] | IC50 [3] [nM] | SMILES |
| --- | --- | --- | --- |
| 100 to 500 | < 100 | 500 to 2000 | Cc1ccc(S(=O)(=O)N2CCC3(CCCO3)CC2)cc1-c1cnc2c(N)ncnn12 [Example 194, 7-(5-((1-Oxa-8-azaspiro[4.5]decan-8-yl)sulfonyl)-2-methylphenyl)imidazo[2,1-f][1,2,4]triazin-4-amine] |
| 100 to 500 | < 100 | 100 to 500 | Cc1ccc(S(=O)(=O)N2CC3CCOCC3C2)cc1-c1cnc2c(N)ncnn12 (stereo not drawn) [Example 210, 7-(5-((Hexahydropyrano[3,4-c]pyrrol-2(3H)-yl)sulfonyl)-2-methylphenyl)imidazo[2,1-f][1,2,4]triazin-4-amine] |
| 100 to 500 | < 100 | 100 to 500 | Cc1ccc(S(=O)(=O)N[C@@H](C)CO)cc1-c1cnc2c(N)nc(C(F)(F)F)nn12 [Example 249, (S)-3-(4-Amino-2-(trifluoromethyl)imidazo[2,1-f][1,2,4]triazin-7-yl)-N-(1-hydroxypropan-2-yl)-4-methylbenzenesulfonamide] |
| 100 to 500 | < 100 | 100 to 500 | Cc1ccc(S(=O)(=O)NC23CC(C#N)(C2)C3)cc1-c1cnc2c(N)ncnn12 [Example 250, 3-(4-Aminoimidazo[2,1-f][1,2,4]triazin-7-yl)-N-(3-cyanobicyclo[1.1.1]pentan-1-yl)-4-methylbenzenesulfonamide] |
| < 100 | < 100 | 100 to 500 | Cc1ccc(S(=O)(=O)NC23CCC(C#N)(C2)C3)cc1-c1cnc2c(N)ncnn12 [Example 251, 3-(4-Aminoimidazo[2,1-f][1,2,4]triazin-7-yl)-N-(4-cyanobicyclo[2.1.1]hexan-1-yl)-4-methylbenzenesulfonamide trifluoroacetate salt] |
| 100 to 500 | < 100 | 100 to 500 | [2H]C([2H])([2H])c1ccc(S(=O)(=O)NC23CCC(O)(C2)C3)cc1-c1cnc2c(N)nc(C(F)(F)F)cn12 [Example 252, 3-(8-Amino-6-(trifluoromethyl)imidazo[1,2-a]pyrazin-3-yl)-N-(4-hydroxybicyclo[2.1.1]hexan-1-yl)-4-(methyl-d3)benzenesulfonamide] |
| < 100 | < 100 | 100 to 500 | [2H]C([2H])([2H])c1ccc(S(=O)(=O)NC23CCC(C#N)(C2)C3)cc1-c1cnc2c(N)ncnn12 [Example 253, 3-(4-Aminoimidazo[2,1-f][1,2,4]triazin-7-yl)-N-(4-cyanobicyclo[2.1.1]hexan-1-yl)-4-(methyl-d3)benzenesulfonamide (crystalline free base)] |
| < 100 | < 100 | 100 to 500 | Cl.[2H]C([2H])([2H])c1ccc(S(=O)(=O)NC23CCC(C#N)(C2)C3)cc1-c1cnc2c(N)ncnn12 [Example 254, 3-(4-Aminoimidazo[2,1-f][1,2,4]triazin-7-yl)-N-(4-cyanobicyclo[2.1.1]hexan-1-yl)-4-(methyl-d3)benzenesulfonamide crystalline hydrochloric acid salt] |
| < 100 | < 100 | 100 to 500 | O=S(=O)(O)c1ccccc1.[2H]C([2H])([2H])c1ccc(S(=O)(=O)NC23CCC(C#N)(C2)C3)cc1-c1cnc2c(N)ncnn12 [Example 255, 3-(4-Aminoimidazo[2,1-f][1,2,4]triazin-7-yl)-N-(4-cyanobicyclo[2.1.1]hexan-1-yl)-4-(methyl-d3)benzenesulfonamide crystalline benzenesulfonic acid salt] |
| 100 to 500 | < 100 | 100 to 500 | Cc1ncc(S(=O)(=O)NC23CCC(C#N)(C2)C3)cc1-c1cnc2c(N)ncnn12 [Example 256, 5-(4-Aminoimidazo[2,1-f][1,2,4]triazin-7-yl)-N-(4-cyanobicyclo[2.1.1]hexan-1-yl)-6-methylpyridine-3-sulfonamide trifluoroacetate salt] |
| < 100 | < 100 | 100 to 500 | Cc1ccc(S(=O)(=O)NC23CCC(CO)(C2)C3)cc1-c1cnc2c(N)nc(C3CC3)nn12 [Example 259, 3-(4-Amino-2-cyclopropylimidazo[2,1-f][1,2,4]triazin-7-yl)-N-(4-(hydroxymethyl)bicyclo[2.1.1]hexan-1-yl)-4-methylbenzenesulfonamide trifluoroacetate salt] |
